One experiment concerns the target human CB2 receptors (Homo sapiens (Human), UniProt P34972). Put plainly: functional cAMP assay, CHO cells expressing human CB2 receptors. It counts as cell-based. Put shortly:
(§1)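 Compound exposure lasted 30 min at 30 °C in IBMX (1 mM)-containing Krebs Ringer bicarbonate buffer, applied to human CB1- or CB2-expressing CHO cells. Lysates were read by time-resolved FRET cAMP detection, converted via cAMP standard curve (10 μM–0.13 nM), and EC50 values calculated.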
A general note: cAMP levels reflect the balance of adenylyl cyclase and phosphodiesterase activity.

The target in another experiment is human CB1 receptors (Homo sapiens (Human), UniProt P21554). Put plainly: functional cAMP assay, CHO cells expressing human CB1 receptors. It counts as cell-based. Put shortly: as §1

The structures appear in SMILES notation.

human CB2 receptors, sequence (P34972 whole entry): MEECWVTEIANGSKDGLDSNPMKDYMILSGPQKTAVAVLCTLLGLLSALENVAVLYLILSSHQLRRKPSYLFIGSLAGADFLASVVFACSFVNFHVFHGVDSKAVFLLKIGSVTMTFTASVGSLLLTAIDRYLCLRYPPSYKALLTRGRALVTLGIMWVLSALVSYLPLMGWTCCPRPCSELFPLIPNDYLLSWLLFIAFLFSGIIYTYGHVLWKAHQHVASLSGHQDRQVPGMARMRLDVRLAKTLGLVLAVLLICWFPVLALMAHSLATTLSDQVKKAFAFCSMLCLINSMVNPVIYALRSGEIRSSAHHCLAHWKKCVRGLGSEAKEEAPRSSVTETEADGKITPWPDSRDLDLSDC
human CB1 receptors, sequence (P21554 whole entry): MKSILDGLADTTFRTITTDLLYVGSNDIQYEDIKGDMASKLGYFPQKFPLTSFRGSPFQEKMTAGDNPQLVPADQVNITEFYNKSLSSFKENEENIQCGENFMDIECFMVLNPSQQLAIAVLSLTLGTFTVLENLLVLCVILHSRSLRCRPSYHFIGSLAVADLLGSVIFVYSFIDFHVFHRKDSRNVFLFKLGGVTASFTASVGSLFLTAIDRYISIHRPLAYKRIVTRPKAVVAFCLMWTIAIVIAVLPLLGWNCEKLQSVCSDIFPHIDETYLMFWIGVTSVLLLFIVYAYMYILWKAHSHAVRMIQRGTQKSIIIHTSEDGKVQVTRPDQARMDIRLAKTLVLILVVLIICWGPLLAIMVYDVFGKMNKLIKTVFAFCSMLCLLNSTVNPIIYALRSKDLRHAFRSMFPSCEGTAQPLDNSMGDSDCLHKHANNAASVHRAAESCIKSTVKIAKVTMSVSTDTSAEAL

`CC(C)(C)N(CCC(N)=O)C(=O)c1ccc(N2CC(F)(F)C2)c(OCC2CC2)n1` [Example 72, 6-Cyclopropylmethoxy-5-(3,3-difluoro-azetidin-1-yl)-pyridine-2-carboxylic acid tert-butyl-(2-carbamoyl-ethyl)-amide]: the EC50 – broadly, the midpoint of the concentration-response curve – at human CB2 receptors is 664 nM; on human CB1 receptors, over 10000 nM.
The matching figures for `NC(=O)[C@@H]1CCCN1C(=O)c1ccc(C2CC2)c(OCC2CC2)n1` [Example 73, (S)-1-(5-Cyclopropyl-6-cyclopropylmethoxy-pyridine-2-carbonyl)-pyrrolidine-2-carboxylic acid amide]: 636 nM and over 10000 nM.
For `CC(C)(C)OC(=O)N1CCC2(CCCN2C(=O)c2ccc(N3CC(F)(F)C3)c(OCC3CC3)n2)CC1` [Example 74, 1-[6-Cyclopropylmethoxy-5-(3,3-difluoro-azetidin-1-yl)-pyridine-2-carbonyl]-1,8-diaza-spiro[4.5]decane-8-carboxylic acid tert-butyl ester], in that order: 11.5 nM and over 10000 nM.
For `NC(=O)[C@@H]1CC(F)(F)CN1C(=O)c1ccc(C2CC2)c(OCC2CCCO2)n1` (stereo partly drawn) [Example 75, (S)-1-{5-Cyclopropyl-6-[(R,S)-1-(tetrahydro-furan-2-yl)methoxy]-pyridine-2-arbonyl}-4,4-difluoro-pyrrolidine-2-carboxylic acid amide], in that order: 16.2 nM and over 10000 nM.
On to `NC(=O)[C@@H]1CC(F)(F)CN1C(=O)c1ccc(C2CC2)c(Cc2ccc(F)cc2)n1` [Example 76, (S)-1-[5-Cyclopropyl-6-(4-fluoro-benzyl)-pyridine-2-carbonyl]-4,4-difluoro-pyrrolidine-2-carboxylic acid amide], for which the EC50 at human CB2 receptors was determined as 0.2 nM; at human CB1 receptors it was 167 nM.
Take `CC1(C)C[C@H](C(N)=O)N(C(=O)c2ccc(N3CC(F)(F)C3)c(OCC3CC3)n2)C1` [Example 77, (+)-1-[6-Cyclopropylmethoxy-5-(3,3-difluoro-azetidin-1-yl)-pyridine-2-carbonyl]-4,4-dimethyl-pyrrolidine-2-carboxylic acid amide]: the EC50 on human CB2 receptors is 194 nM; on human CB1 receptors it was over 10000 nM.
For `CC1(C)C[C@@H](C(N)=O)N(C(=O)c2ccc(N3CC(F)(F)C3)c(OCC3CC3)n2)C1` [Example 78, (−)-1-[6-Cyclopropylmethoxy-5-(3,3-difluoro-azetidin-1-yl)-pyridine-2-carbonyl]-4,4-dimethyl-pyrrolidine-2-carboxylic acid amide], in that order: 1.2 nM and over 10000 nM.
The matching figures for `NC(=O)[C@@H]1C[C@H](O)CN1C(=O)c1ccc(N2CC(F)(F)C2)c(OCC2CC2)n1` [Example 79, (2S,4S)-1-[6-Cyclopropylmethoxy-5-(3,3-difluoro-azetidin-1-yl)-pyridine-2-carbonyl]-4-hydroxy-pyrrolidine-2-carboxylic acid amide]: 519 nM and over 10000 nM.
The matching figures for `NC(=O)[C@@H]1C[C@H](F)CN1C(=O)c1ccc(N2CC(F)(F)C2)c(OCC2CC2)n1` [Example 80, (2S,4S)-1-[6-Cyclopropylmethoxy-5-(3,3-difluoro-azetidin-1-yl)-pyridine-2-carbonyl]-4-fluoro-pyrrolidine-2-carboxylic acid amide]: 342 nM and over 10000 nM.
For `Cc1nnc(CN(C(=O)c2ccc(N3CC(F)(F)C3)c(OCC3CC3)n2)C2CC2)o1` [Example 81, 6-Cyclopropylmethoxy-5-(3,3-difluoro-azetidin-1-yl)-pyridine-2-carboxylic acid cyclopropyl-(5-methyl-[1,3,4]oxadiazol-2-ylmethyl)-amide], the results for the EC50 at human CB2 receptors and at human CB1 receptors were 652 nM and over 10000 nM, respectively.
The matching figures for `O=C(c1ccc(N2CC(F)(F)C2)c(OCC2CC2)n1)N1CCC2(CC(O)CO2)C1` (centres unmarked) [Example 82, [6-Cyclopropylmethoxy-5-(3,3-difluoro-azetidin-1-yl)-pyridin-2-yl]-(3-hydroxy-1-oxa-7-aza-spiro[4.4]non-7-yl)-methanone]: 356 nM and over 10000 nM.
The matching figures for `O=C(c1ccc(N2CC(F)(F)C2)c(OCC2CC2)n1)N1CC2(CC(O)CO2)C1` (centres unmarked) [Example 83, [6-Cyclopropylmethoxy-5-(3,3-difluoro-azetidin-1-yl)-pyridin-2-yl]-(7-hydroxy-5-oxa-2-aza-spiro[3.4]oct-2-yl)-methanone]: 760 nM and over 10000 nM.
Regarding `CC1(C)CCCN1C(=O)c1ccc(C2CC2)c(OCC(F)(F)C(F)(F)F)n1` [Example 84, [5-Cyclopropyl-6-(2,2,3,3,3-pentafluoro-propoxy)-pyridin-2-yl]-(2,2-dimethyl-pyrrolidin-1-yl)-methanone], the figures for the EC50 at human CB2 receptors and on human CB1 receptors were 18.9 nM and over 10000 nM, respectively.
For `O=C(c1ccc(N2CC(F)(F)C2)c(OCC2CC2)n1)N1C[C@H]2CC[C@@H](C1)O2` [Example 85, [6-Cyclopropylmethoxy-5-(3,3-difluoro-azetidin-1-yl)-pyridin-2-yl]-(1S,5R)-8-oxa-3-aza-bicyclo[3.2.1]oct-3-yl-methanone], in that order: 85.4 nM and over 10000 nM.
For `O=C(c1ccc(N2CC(F)(F)C2)c(OCC2CC2)n1)N1[C@@H]2CC[C@H]1COC2` [Example 86, [6-Cyclopropylmethoxy-5-(3,3-difluoro-azetidin-1-yl)-pyridin-2-yl]-(1R,5S)-3-oxa-8-aza-bicyclo[3.2.1]oct-8-yl-methanone], in that order: 72.7 nM and over 10000 nM.
For `NC(=O)[C@H]1CC(F)(F)CN1C(=O)c1ccc(C2CC2)c(OCC(F)(F)C(F)(F)F)n1` [Example 87, (R)-1-[5-Cyclopropyl-6-(2,2,3,3,3-pentafluoro-propoxy)-pyridine-2-carbonyl]-4,4-difluoro-pyrrolidine-2-carboxylic acid amide], in that order: 768 nM and over 10000 nM.
Turning to `NC(=O)C1CCCCN1C(=O)c1ccc(C2CC2)c(OCC2CC2)n1` (centres unmarked) [Example 88, 1-(5-Cyclopropyl-6-cyclopropylmethoxy-pyridine-2-carbonyl)-piperidine-2-carboxylic acid amide], the EC50 was 180 nM at human CB2 receptors and over 10000 nM at human CB1 receptors.
The matching figures for `NC(=O)C1CSCCN1C(=O)c1ccc(C2CC2)c(OCC2CC2)n1` (centres unmarked) [Example 89, 4-(5-Cyclopropyl-6-cyclopropylmethoxy-pyridine-2-carbonyl)-thiomorpholine-3-carboxylic acid amide]: 318 nM and over 10000 nM.
The matching figures for `CC1(C)CC(C(N)=O)N(C(=O)c2ccc(C3CC3)c(OCC3CC3)n2)C1` (centres unmarked) [Example 90, 1-(5-Cyclopropyl-6-cyclopropylmethoxy-pyridine-2-carbonyl)-4,4-dimethyl-pyrrolidine-2-carboxylic acid amide]: 14.8 nM and over 10000 nM.
For `NC(=O)[C@H]1CCCCN1C(=O)c1ccc(C2CC2)c(OCC2CC2)n1` [Example 91, (+)-1-(5-Cyclopropyl-6-cyclopropylmethoxy-pyridine-2-carbonyl)-piperidine-2-carboxylic acid amide], the values for the EC50 at human CB2 receptors and on human CB1 receptors were 893 nM and over 10000 nM, respectively.
For `NC(=O)[C@@H]1CCCCN1C(=O)c1ccc(C2CC2)c(OCC2CC2)n1` [Example 92, (−)-1-(5-Cyclopropyl-6-cyclopropylmethoxy-pyridine-2-carbonyl)-piperidine-2-carboxylic acid amide], in that order: 101 nM and over 10000 nM.
Turning to `NC(=O)[C@@H]1CSCCN1C(=O)c1ccc(C2CC2)c(OCC2CC2)n1` [Example 93, (−)-4-(5-Cyclopropyl-6-cyclopropylmethoxy-pyridine-2-carbonyl)-thiomorpholine-3-carboxylic acid amide], the EC50 on human CB2 receptors is 327 nM; on human CB1 receptors, over 10000 nM.
In the case of `CC1(C)C[C@H](C(N)=O)N(C(=O)c2ccc(C3CC3)c(OCC3CC3)n2)C1` [Example 94, (+)-1-(5-Cyclopropyl-6-cyclopropylmethoxy-pyridine-2-carbonyl)-4,4-dimethyl-pyrrolidine-2-carboxylic acid amide], the results for the EC50 on human CB2 receptors and at human CB1 receptors were 80.2 nM and over 10000 nM, respectively.
`CC1(C)C[C@@H](C(N)=O)N(C(=O)c2ccc(C3CC3)c(OCC3CC3)n2)C1` [Example 95, (−)-1-(5-Cyclopropyl-6-cyclopropylmethoxy-pyridine-2-carbonyl)-4,4-dimethyl-pyrrolidine-2-carboxylic acid amide]: the EC50 is 10.4 nM at human CB2 receptors and over 10000 nM at human CB1 receptors.
For `NC(=O)C1CSCN1C(=O)c1ccc(C2CC2)c(OCC2CC2)n1` (centres unmarked) [Example 96, 3-(5-Cyclopropyl-6-cyclopropylmethoxy-pyridine-2-carbonyl)-thiazolidine-4-carboxylic acid amide], in that order: 103 nM and over 10000 nM.
With `NC(=O)[C@@H]1CSCN1C(=O)c1ccc(C2CC2)c(OCC2CC2)n1` [Example 97, (−)-3-(5-Cyclopropyl-6-cyclopropylmethoxy-pyridine-2-carbonyl)-thiazolidine-4-carboxylic acid amide], the EC50 was 72.3 nM on human CB2 receptors and over 10000 nM at human CB1 receptors.
The matching figures for `O=C(c1ccc(N2CC(F)(F)C2)c(OCC2CC2)n1)N1CC2(CCCO2)C1` [Example 99, [6-Cyclopropylmethoxy-5-(3,3-difluoro-azetidin-1-yl)-pyridin-2-yl]-(5-oxa-2-aza-spiro[3.4]oct-2-yl)-methanone]: 305 nM and over 10000 nM.
With `O=C(c1ccc(N2CC(F)(F)C2)c(OCC2CC2)n1)N1CCC2(CCCO2)C1` (centres unmarked) [Example 100, [6-Cyclopropylmethoxy-5-(3,3-difluoro-azetidin-1-yl)-pyridin-2-yl]-(1-oxa-7-aza-spiro[4.4]non-7-yl)-methanone], the EC50 on human CB2 receptors is 20.8 nM; at human CB1 receptors, over 10000 nM.

(Values after US9303012B2, “Pyridine-2-amides useful as CB2 agonists” (Hoffmann-La Roche Inc., priority 2012, dated 2016).)
